`Cc1ccc(S(=O)(=O)Oc2cc(Cl)nnc2Oc2cc(C)ccc2C(C)C)cc1` [Compound No. 2249, 6-Chloro-3-(2-isopropyl-5-methylphenoxy)-4-pyridazinyl 4-methylbenzenesulfonate] came in with a melting point of 90 to 92 °C. As for `Cc1cccc(C2CC2)c1Oc1nnc(Cl)cc1OC(=O)C(C)C` [Compound No. 1172, 6-Chloro-3-(2-cyclopropyl-6-methylphenoxy)-4-pyridazinyl 2-methylpropanoate], the melting point is 38 to 39 °C. On to `Cc1ccc(S(=O)(=O)Oc2cc(Cl)nnc2Oc2ccccc2C(C)C)cc1` [Compound No. 2222, 6-Chloro-3-(2-isopropylphenoxy)-4-pyridazinyl 4-methylbenzenesulfonate], for which the melting point is 99 to 100 °C. Compound `CC1COc2cccc(Oc3nnc(Cl)cc3O)c21` (stereo not shown) [Compound No. 529, 6-Chloro-3-[(3-methyl-2,3-dihydro-1-benzofuran-4-yl)oxy]-4-pyridazinol] yielded a melting point of 238 to 245 °C. Under `COC1(c2ccccc2Oc2nnc(Cl)cc2O)CC1` [Compound No. 202, 6-Chloro-3-[2-(1-methoxycyclopropyl)phenoxy]-4-pyridazinol] stands 157 to 165 °C; under `Cc1cccc(C2CC2)c1Oc1nnc(Cl)cc1OC(=O)c1ccc(C(=O)Oc2cc(Cl)nnc2Oc2c(C)cccc2C2CC2)cc1` [Compound No. 3001, Bis[6-chloro-3-(2-cyclopropyl-6-methylphenoxy)-4-pyridazinyl]terephthalate], 247 to 249 °C; under `Oc1cc(Cl)nnc1Oc1cccc2ccoc12` [Compound No. 541, 3-(1-Benzofuran-7-yloxy)-6-chloro-4-pyridazinol], 201 to 202 °C.

As to `Cc1cc(Oc2nnc(Cl)cc2O)cc(C(C)C)c1` [Compound No. 1000, 6-Chloro-3-(3-isopropyl-5-methylphenoxy)-4-pyridazinol], the melting point fell in the range of 204 to 206 °C. `Cc1c(Cl)cccc1Oc1nnc(Cl)cc1O` [Compound No. 454, 6-Chloro-3-(3-chloro-2-methylphenoxy)-4-pyridazinol]: the melting point lay in the range of 250 to 252 °C.

Turning to `CCSc1cc(Oc2nnc(Cl)cc2O)c(Br)cc1Br` [Compound No. 2596, 6-Chloro-3-[2,4-dibromo-5-(ethylsulfanyl)phenoxy]-4-pyridazinol], the melting point was 225 to 228 °C. `COc1cccc(Oc2nnc(Cl)cc2O)c1C1CC1` [Compound No. 478, 6-Chloro-3-(2-cyclopropyl-3-methoxyphenoxy)-4-pyridazinol] returned a melting point of 184 to 185 °C. Under `Cc1cccc(C(C)C)c1Oc1nnc(Cl)cc1O` [Compound No. 803, 6-Chloro-3-(2-isopropyl-6-methylphenoxy)-4-pyridazinol] stands 215 to 220 °C; under `C[Si](C)(C)c1ccc(Oc2nnc(Cl)cc2O)cc1`, 197 to 199 °C. On to `C=C(C)c1ccccc1Oc1nnc(Cl)cc1O` [Compound No. 304, 6-Chloro-3-(2-isopropenylphenoxy)-4-pyridazinol], for which the melting point was 187 to 188 °C. Take `Oc1cc(Cl)nnc1Oc1c(Br)cccc1C1CC1` [Compound No. 762, 3-(2-Bromo-6-cyclopropylphenoxy)-6-chloro-4-pyridazinol]: the melting point lay within 230 to 232 °C. Under `CC(C)(C)c1cccc(Oc2nnc(Cl)cc2O)c1` [Compound No. 416, 3-(3-tert-Butylphenoxy)-6-chloro-4-pyridazinol] stands 203 to 207 °C; under `Cc1ccc(S(=O)(=O)Oc2cc(Cl)nnc2Oc2c(C)cccc2C2CC2)cc1` [Compound No. 2265, 6-Chloro-3-(2-cyclopropyl-6-methylphenoxy)-4-pyridazinyl 4-methylbenzenesulfonate], 85 to 87 °C.

As to `Cc1ccc(Br)c(Oc2nnc(Cl)cc2O)c1C` [Compound No. 1058, 3-(6-Bromo-2,3-dimethylphenoxy)-6-chloro-4-pyridazinol], the melting point was 263 to 268 °C. `Cc1cccc(C2CC2)c1Oc1nnc(Cl)cc1OC(=O)OCC(C)C` [Compound No. 1770, 6-Chloro-3-(2-cyclopropyl-6-methylphenoxy)-4-pyridazinyl isobutyl carbonate] registered a melting point of 72 to 74 °C. Under `Oc1cc(Cl)nnc1Oc1ccccc1-c1ccccc1` [Compound No. 344, 3-([1,1′-Biphenyl]-2-yloxy)-6-chloro-4-pyridazinol] stands 98 to 100 °C; under `CC(C)c1ccc(Oc2nnc(Cl)cc2O)cc1` [Compound No. 432, 6-Chloro-3-(4-isopropylphenoxy)-4-pyridazinol], 233 to 235 °C; under `Cc1ccccc1Oc1nnc(Cl)cc1OC(=O)N1CCCC1` [Compound No. 1924, 6-Chloro-3-(2-methylphenoxy)-4-pyridazinyl 1-pyrrolidinecarboxylate], 126 to 127 °C. As for `Cc1ccccc1Oc1nnc(-c2ccccc2)cc1O` [Compound No. 2464, 3-(2-Methylphenoxy)-6-phenyl-4-pyridazinol], the melting point fell in the range of 236 to 237 °C.

`CCOC(=O)Oc1cc(Cl)nnc1Oc1ccccc1C` [Compound No. 1706, 6-Chloro-3-(2-methylphenoxy)-4-pyridazinyl ethyl carbonate] displayed a melting point of 73 to 74 °C. The value for `Cc1cccc(C2CC2)c1Oc1nnc(Cl)cc1OC(=O)N(CCCl)CCCl` was 166 to 167 °C; that for `Oc1cc(Cl)nnc1Oc1ccccc1I` [Compound No. 127, 6-Chloro-3-(2-iodophenoxy)-4-pyridazinol] was 216 to 217 °C. For the compound `CC(C)c1cccc(Oc2nnc(Cl)cc2O)c1` [Compound No. 415, 6-Chloro-3-(3-isopropylphenoxy)-4-pyridazinol], the melting point lay in the range of 176 to 177 °C.

On to `Cc1cc(C)c(Br)c(Oc2nnc(Cl)cc2O)c1C` [Compound No. 1124, 3-(2-Bromo-3,5,6-trimethylphenoxy)-6-chloro-4-pyridazinol], for which the melting point fell in the range of 280 to 290 °C. For `Cc1ccc(C)c(C2CC2)c1Oc1nnc(Cl)cc1O` [Compound No. 1073, 6-Chloro-3-(2-cyclopropyl-3,6-dimethylphenoxy)-4-pyridazinol], the melting point was in the range of 171 to 175 °C. Under `Cc1cccc(C2CC2)c1Oc1nnc(Cl)cc1OC(=O)N(C)C` stands 136 to 138 °C; under `Cc1cccc(C2CC2)c1Oc1nnc(Cl)cc1OC(=O)c1cc2ccccc2s1` [Compound No. 3504, 6-Chloro-3-(2-cyclopropyl-6-methylphenoxy)-4-pyridazinyl 1-benzothiophene-2-carboxylate], 105 to 107 °C; under `CCC(C)c1ccccc1Oc1nnc(Cl)cc1OS(=O)(=O)c1ccc(C)cc1` (stereo not shown) [Compound No. 2223, 3-(2-s-Butylphenoxy)-6-chloro-4-pyridazinyl 4-methylbenzenesulfonate], 65 to 66 °C. `Oc1cc(Cl)nnc1Oc1cccc(-c2ccco2)c1` [Compound No. 419, 6-Chloro-3-[3-(2-furyl)phenoxy]-4-pyridazinol] showed a melting point of 200 to 202 °C. As to `Cc1ccc(C(=O)O)cc1Oc1nnc(Cl)cc1O` [Compound No. 626, 3-[(6-Chloro-4-hydroxy-3-pyridazinyl)oxy]-4-methylbenzoic acid], the melting point fell in the range of 238 to 240 °C.

As usually defined, the melting point is the temperature of the solid-liquid transition.

These data come from patent US7964531B2, “3-phenoxy-4-pyridazinol derivatives and herbicidal composition containing the same” (Mitsui Chemicals Agro, Inc., priority 2001, dated 2011).
